In PubChem BioAssay (NCI):
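GI50 is the concentration that inhibits growth by half. TGI is the concentration that stops growth completely.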

Experiments:
Assay in all cases: NCI tumour cell line growth inhibition, 384-well format
SNB-19 CNS = system: SNB-19 CNS
HS 578T breast = system: HS 578T breast
SNB-75 CNS = system: SNB-75 CNS
BT-549 breast = system: BT-549 breast
RPMI-8226 leukemia = system: RPMI-8226 leukemia
SR leukemia = system: SR leukemia
OVCAR-4 ovarian = system: OVCAR-4 ovarian
UACC-62 melanoma = system: UACC-62 melanoma
NCI/ADR-RES ovarian = system: NCI/ADR-RES ovarian
OVCAR-3 ovarian = system: OVCAR-3 ovarian
HCC-2998 colon = system: HCC-2998 colon
HT29 colon = system: HT29 colon
NCI-H226 lung = system: NCI-H226 lung

SMILES: Cc1cc(C)c(CNC(=O)c2cc(-c3ccc(CN4CCOCC4)cc3)cc3c2cnn3C2CCCC2)c(=O)[nH]1
- GI50 (SNB-19 CNS): 9.84 µM
- TGI (SNB-19 CNS): 23.4 µM
- GI50 (HS 578T breast): 2.92 µM
- TGI (HS 578T breast): 7.44 µM
- GI50 (SNB-75 CNS): 7.97 µM
- TGI (SNB-75 CNS): 21.2 µM
- GI50 (BT-549 breast): 8.98 µM
- TGI (BT-549 breast): 22.1 µM
- GI50 (RPMI-8226 leukemia): 2.11 µM
- TGI (RPMI-8226 leukemia): 6.54 µM
- GI50 (SR leukemia): 2.41 µM
- TGI (SR leukemia): 5.85 µM
- GI50 (OVCAR-4 ovarian): 12.9 µM
- TGI (OVCAR-4 ovarian): 25.8 µM
- GI50 (UACC-62 melanoma): 12.3 µM
- TGI (UACC-62 melanoma): 24.9 µM
- GI50 (NCI/ADR-RES ovarian): 11.6 µM
- TGI (NCI/ADR-RES ovarian): 24 µM
- GI50 (OVCAR-3 ovarian): 4.83 µM
- TGI (OVCAR-3 ovarian): 17.5 µM
- GI50 (HCC-2998 colon): 6.61 µM
- TGI (HCC-2998 colon): 17.7 µM
- GI50 (HT29 colon): 2.3 µM
- TGI (HT29 colon): 5.14 µM
- GI50 (NCI-H226 lung): 12.9 µM
- TGI (NCI-H226 lung): 25.9 µM
